# Test results taken from PMC12677653, “Inhibition of Tumor Lipogenesis and Growth by Peptide‐Based Targeting of SREBP Activation” (Advanced Science, 2025).
# What was measured:
# SREBP1 activity = assay: SRE luciferase assay; assay type: cell-based, human; details: Huh7 cells, peptide 15 µM 1 h, IGF1 100 ng/mL 14 h, normalized to β-galactosidase, n = 3
# [1] = test system: HCT116 human colon cancer cells; assay: Cell proliferation / cell death, HCT116; assay type: cell-based; details: concentration gradient of peptide, OD measurement (Figure S1i)
# Method: Cells were seeded in 96‐well plates at a density of 5000 cells per well in 100 µL complete growth medium. Following a 24‐hour incubation period (37 °C, 5% CO2) to permit cell adherence, the culture medium was replaced with fresh low serum contained complete medium containing either Insig1/2 loop1 peptide (0–100 µM concentration range) or PBS. Cells were maintained under these conditions for 72 hours. After treatment, the culture medium was carefully aspirated, and cells were washed twice with 200 µL phosphate‐buffered saline (PBS, pH 7.4). Fixed was performed using 4% paraformaldehyde (100 µL/well) for 15 min at room temperature, followed by three PBS washes (200 µL/well) to remove residual fixative. 0.1% (w/v) crystal violet staining solution was prepared by dissolving crystal violet powder in 10% ethanol, followed by filtration through a 0.22 µm membrane. Each well received 80 µL of staining solution and was incubated for 15 min at room temperature, protected from light. […] Plates were agitated at 200 rpm for 10 min to ensure complete dissolution before measuring absorbance at 582 nm using a microplate reader. […]
# i-k) (i) HCT116, (j) Huh7, and (k) Hep3B cells were exposed to a concentration gradient of Insig1/2 loop1 peptide, and cell proliferation was quantified by optical density (OD) measurements.
# SREBP1 = assay: Immunofluorescence of SREBP1 nuclear accumulation; assay type: cell-based, human; details: Huh7 cells, peptide 15 μM, IGF1 100 ng/mL 8 h
# Method: Figure 1 The Insig1/2 loop 1 peptide binds to S90‐phosphorylated PCK1 and blocks PCK1‐mediated SREBP activation and tumor cell proliferation. Immunoblotting analyses were performed using the indicated antibodies; representative results from three independent experiments are shown (IP, immunoprecipitation; WB, western blot). a) Huh7 cells expressing various Insig1 (top) or Insig2 (bottom) truncation mutants were treated with or without IGF1 (100 ng mL^−1) for 1 h. b,c) Biolayer interferometry assays (Sartorius Octet) were employed to measure the binding affinity of Insig1/2 loop 1 peptide to GST‐PCK1 or GST‐PCK1 pS90 proteins. […] Statistical significance was determined by one‐way analysis of variance (ANOVA). g) Following pretreatment with Insig1/2 loop 1 peptide (15 µM) and IGF1 stimulation (100 ng mL^−1, 8 h), Huh7 cells were subjected to immunofluorescence analysis (scale bar: 10 µm). h) Quantitative PCR analysis of SREBP1 target gene GPAM in Huh7 cells pretreated with Insig1/2 loop 1 peptide (15 µM) and stimulated with IGF1 (100 ng mL^−1) for 10 h. […] Statistical significance was determined by one‐way analysis of variance (ANOVA). i) Quantitative PCR analysis of SREBP1 target gene FASN in Huh7 cells pretreated with Insig1/2 loop 1 peptide (15 µM) and stimulated with IGF1 (100 ng mL^−1) for 10 h. […]
sequence,measurement,setting,value
RKKRRQRRRLYPCIDSHLGEPHKFKRE [Insig1/2 loop 1 peptide],SREBP1 activity (SRE luciferase),SREBP1 activity,markedly inhibited
same,cell death,[1],induced cell death
same,nuclear accumulation of SREBP1,SREBP1,markedly inhibited
